The subject of one test is Mab 64G12. The test can be described thus: ELISA binding of peptides to Mab 64G12. More on the design: species or system mouse. The following applies: biotin-SGSG-peptide on streptavidin plates, peptide 20 μM, antibody 1 μg/ml. As to the method:
Binding of Peptides to Mab 64G12
The 11 mer (SEQ ID no. 2) and a number of modified versions of that polypeptide derived by deletion or substitution were tested for ability to bind Mab 64G12 by ELISA. […]. The peptides were biotinylated at the N-terminus with a spacer sequence SGSG between the peptide and the biotin, i.e. biotin-SGSG-peptide.
ELISA screening for ability to bind Mab 64G12 was carried out using Nunc Maxisorb plates coated with Streptavidin 5 μg/ml, 100 μl/well overnight at 37° C. The plates were then blocked with 200 μl/well of PBS containing 0.1% Tween 20, 1% sodium caseinate (CAST) for 1 hour at 20° C. Peptides were dissolved by adding 50 μl of DMSO and 0.6 ml of 40% acetonitrile to each tube. For peptide coating, 100 μl of PBS, 0.1% Tween 20 (PT) were added to each well, followed by 2 μl of each peptide solution (final peptide concentration 20 μM). After 30 mins, the monoclonal antibody was added at 1 μg/ml in PT for 1 hour at 20° C. The plates were washed and 100 μl/well of a 1/2000 dilution of horseradish peroxidase labeled goat anti-mouse IgG (H+L) in CAST plus 1% sheep serum (CASS) was added for 1 hour at 20° C. After washing, 100 μl of ABTS substrate was distributed to all wells. Absorbance was measured after 10 and 45 mins incubation on a plate reader using dual wavelength ([…]) to correct for background.
Background: In an ELISA, binding on a coated surface is turned into a signal by an enzyme label.

A further test relates to IFN-R on Daudi cells. The test can be described thus: Inhibition of Type 1-IFN binding to the IFN-R on Daudi cells: 125I-IFN-α2 binding in presence of Mab 64G12 with or without peptide. The following applies: Mab 64G12 2 μg, 125I-labeled human IFN-α2 0.13 nM, 2 hours at 4° C. The procedure:
Inhibition of Type 1-IFN Binding to the IFN-R on Daudi Cells.
Cultures of exponentially growing Daudi cells (2 million cells/0.2 ml RPMI 1640 medium with 10% fetal calf serum) were treated with: Mab 64G12 (2 μg), alone or together with: (i) a soluble affinity purified recombinant polypeptide corresponding to amino acids 1 to 427 of the extracellular domain region sequence of the IFNAR1 chain as reported by Uze et al., 1990, Cell, 60, 224-234 (prepared as described in Benoit et al., 1993, J. Immunol., 150, 707-716 and Published International Application WO 92/18626 and purified first on a NI-NTA agarose column (Qiagen) and subsequently eluted with 300 mM imidazole. The eluted partially purified soluble IFNAR1 was then applied to a 5.0 ml 64G12 Mab sepharose column and eluted with 0.1 M glycine, pH 2.8. The eluted IFNAR1 was pure as determined by SDS-PAGE under denaturing conditions) or (ii) the peptide of SEQ ID no. 2 (the 11 mer). This was followed by the addition of ^125I-labeled human IFN-α2 (iodination as described by Mogensen et al., 1981, Int. J. Cancer, 28, 575-582; 90000 cpm, 0.13 nM) and incubation for 2 hours at 4° C. The cells were then washed 3 times with culture medium containing 1% fetal calf serum and the cell pellet counted in a gamma counter.

In test [1] the test system is anti-IFN-R antibody (34F10). The test can be described thus: Effect of peptide on binding of non-neutralizing anti-IFN-R antibody 34F10 to the IFN-R. The following applies: epitope distant from the ligand binding site.

Consider “FSSLKLNVY (Modified peptide from Hu IFNAR1 receptor) [9 mer]”, for which, in the test with Mab 64G12, the “binding to Mab 64G12 by ELISA” value was “specifically bind”.

For “KLNVYE (Modified peptide from Hu IFNAR1 receptor) [Peptide 7]”, the “binding to Mab 64G12 by ELISA” value in the test with Mab 64G12 is reported as “only background binding”.

For the substance “NFSSLKLNVYE (Modified peptide from Hu IFNAR1 receptor) [Peptide 12]”, in the test on IFN-R on Daudi cells, the “IFN binding to the IFN-R in the presence of Mab 64G12” value was “restored IFN-binding to a high degree”. Also, in test [1], the “ability of antibody 34F10 to bind to the IFN-R” value is on record as “does not affect”. Further, the “binding to Mab 64G12 by ELISA” value in the test on Mab 64G12 is “specifically bind”.
